Test results reported in patent US10869481B2, “Method for controlling nematode pests” (Syngenta Participations AG, priority 2014, dated 2020).

Tests used:
Assay type in all cases: in vivo, Heterodera schachtii
[1] = tested on: sugar beet nematode (SBN); assay: Yield response field trials, INVICTA susceptible sugar beet seeds, seed treatment
Experimental: (§1) The yield response study illustrates the unexpected increase in yield achieved by using a nematode-antagonistic biocontrol agent with SBN resistant or tolerant varieties. Multiple field trials were conducted across Germany, Czech Republic and Denmark. The results of nine different trials are presented below utilizing seed treatments on sugar beet seeds to combat nematodes.
(§2) The tests presented below were run on both susceptible and SBN tolerant varieties of sugar beet seeds. In particular, the susceptible variety is known by the trade name INVICTA and the tolerant variety is known by the trade name CACTUS. Each trial, on both the susceptible and tolerant variety, was run with a Control check that included no nematicide, a treatment on the seed with Pasteuria nishizawae at about 1×10^6 spores/seed, a treatment on the seed with Pasteuria nishizawae at about 1×10^7 spores/seed, and a treatment on the seed that included a commercial soil applied standard nematicide.
(§3) The results of trails are presented below where yield data has been averaged.
INVICTA Susceptible Sugar Beet Seeds

[2] = tested on: sugar beet nematode (SBN); assay: Yield response field trials, CACTUS tolerant sugar beet seeds, seed treatment; details: for White Sugar yield/ha: CACTUS tolerant sugar beet, average of nine field trials
Experimental: as §1, §2, §3
CACTUS Tolerant Sugar Beet Seeds

[3] = tested on: sugar beet nematode (SBN); assay: Root and sugar yield field trials, susceptible sugar beet seeds, seed treatment
Experimental: (§4) The root and sugar yield response study illustrates the unexpected increase in root and sugar yield achieved by using a nematode-antagonistic biocontrol agent with SBN resistant or tolerant varieties. Multiple field trials were conducted across Nebraska, Colorado, and Idaho. The results of four different trials are presented below utilizing seed treatments on sugar beet seeds to combat nematodes.
(§5) The tests presented below were run on both susceptible and SBN tolerant varieties of sugar beet seeds. Each trial, on both the susceptible and tolerant variety, was run with a Control check that included no nematicide, a treatment on the seed with Pasteuria nishizawae at about 5×10^6 spores/seed, a treatment on the seed with Pasteuria nishizawae at about 1×10^7 spores/seed, a treatment on the seed with Pasteuria nishizawae at about 2×10^7 spores/seed and a treatment on the seed with Pasteuria nishizawae at about 4×10^7 spores/seed.
as §3
Susceptible Sugar Beet Seeds

[4] = tested on: sugar beet nematode (SBN); assay: Root and sugar yield field trials, tolerant sugar beet seeds, seed treatment; details: average of four field trials
Experimental: as §4, §5, §3
Tolerant Sugar Beet Seeds

[5] = 1 × 10^7 spores/seed, average of four field trials
[6] = 2 × 10^7 spores/seed, average of four field trials
[7] = 4 × 10^7 spores/seed, average of four field trials

For Pasteuria nishizawae, the “White Sugar yield/ha” value ([1]; seed treatment 1 × 10^6 spores/seed, average of nine field trials (Germany, Czech Republic, Denmark)) was 11.09 /ha, the “White Sugar yield/ha” value ([1]; seed treatment 1 × 10^7 spores/seed, average of nine field trials) was 11.20 /ha and the “White Sugar yield/ha” value ([2]; seed treatment 1 × 10^6 spores/seed) was 12.65 /ha. For the same substance, the “White Sugar yield/ha” value ([2]; seed treatment 1 × 10^7 spores/seed) was 12.93 /ha, the “yield compared with commercial standards” value ([2]; tolerant varieties treated with Pasteuria, statement in words) was “showed an increase over commercial standards” and the “Root Yield” value [3, 5] was 19.9 Ton/Acre. For the same substance, the “White Sugar” value [3, 5] was 2.5 Ton/Acre, the “Root Yield” value [3, 6] was 19.8 Ton/Acre and the “White Sugar” value [3, 6] was 2.3 Ton/Acre. For the same substance, the “Root Yield” value [3, 7] was 19.5 Ton/Acre, the “White Sugar” value [3, 7] was 2.4 Ton/Acre and the “Root Yield” value ([3]; 5 × 10^6 spores/seed, average of four field trials) was 17.4 Ton/Acre. The “White Sugar” value ([3]; 5 × 10^6 spores/seed, average of four field trials (Nebraska, Colorado, Idaho)) was 2.0 Ton/Acre, the “Root Yield” value ([4]; 1 × 10^7 spores/seed) was 27.2 Ton/Acre and the “White Sugar” value ([4]; 1 × 10^7 spores/seed) was 3.5 Ton/Acre. The “Root Yield” value ([4]; 2 × 10^7 spores/seed) was 27.2 Ton/Acre, the “White Sugar” value ([4]; 2 × 10^7 spores/seed) was 3.7 Ton/Acre and the “Root Yield” value ([4]; 4 × 10^7 spores/seed) was 26.7 Ton/Acre. The “White Sugar” value ([4]; 4 × 10^7 spores/seed) was 3.5 Ton/Acre, the “Root Yield” value ([4]; 5 × 10^6 spores/seed) was 26.1 Ton/Acre and the “White Sugar” value ([4]; 5 × 10^6 spores/seed) was 3.6 Ton/Acre.
